± gives the expanded uncertainty stated by the source.
Details: 101.33 kPa, Liquid; for speed of sound: Linear variable-path acoustic interferometer; for mass density: Vibrating tube method

Row | speed of sound (293.15 K) [m/s] | mass density (293.15 K) [kg/m3] | speed of sound (298.15 K) [m/s] | mass density (298.15 K) [kg/m3] | speed of sound (303.15 K) [m/s] | mass density (303.15 K) [kg/m3] | speed of sound (308.15 K) [m/s] | mass density (308.15 K) [kg/m3] | SMILES
1 | 1631 ± 2.6 | 1283.89 ± 1.5 | 1619.4 ± 2.6 | 1279.91 ± 1.5 | 1607.6 ± 2.6 | 1276.26 ± 1.5 | 1596.3 ± 2.6 | 1272.07 ± 1.4 | CCn1cc[n+](C)c1.F[B-](F)(F)F [1-ethyl-3-methylimidazolium tetrafluoroborate]
2 | 1400.5 ± 2.5 | 944.401 ± 0.77 | 1380.1 ± 2.5 | 939.802 ± 0.77 | 1361 ± 2.5 | 935.117 ± 0.76 | 1339.9 ± 2.5 | 930.414 ± 0.76 | Cc1ccccn1 [2-methylpyridine]
3 | 1445.9 ± 1.8 | 956.581 ± 0.23 | 1424 ± 1.8 | 952.002 ± 0.23 | 1404 ± 1.8 | 947.449 ± 0.23 | 1384 ± 1.8 | 942.831 ± 0.23 | Cc1cccnc1 [3-methylpyridine]
4 | 1451.1 ± 1.8 | 955.099 ± 0.23 | 1431.5 ± 1.8 | 950.179 ± 0.23 | 1410.7 ± 1.8 | 945.413 ± 0.23 | 1389.9 ± 1.8 | 940.821 ± 0.23 | Cc1ccncc1 [4-methylpyridine]

Row | SMILES | speed of sound (293.15 K) [m/s] | mass density (293.15 K) [kg/m3] | speed of sound (298.15 K) [m/s] | mass density (298.15 K) [kg/m3] | speed of sound (303.15 K) [m/s] | mass density (303.15 K) [kg/m3] | speed of sound (308.15 K) [m/s] | mass density (308.15 K) [kg/m3]
5 | c1ccncc1 [pyridine] | 1442 ± 1.8 | 983.191 ± 0.23 | 1417.8 ± 1.8 | 978.249 ± 0.23 | 1398 ± 1.8 | 973.224 ± 0.23 | 1377.1 ± 1.8 | 968.166 ± 0.23

From the NIST ThermoML archive (doi:10.1016/j.jct.2012.07.007)
